What is called IC50 is the concentration needed to halve the response being measured. A high value points to weaker potency.

The assay deals with Hsp70 (Homo sapiens, UniProt P0DMV8). Kind of assay: competition of YK5-biotin pull-down in cancer cells. The format is cell-based.
Hsp70, sequence (P0DMV8 2-641): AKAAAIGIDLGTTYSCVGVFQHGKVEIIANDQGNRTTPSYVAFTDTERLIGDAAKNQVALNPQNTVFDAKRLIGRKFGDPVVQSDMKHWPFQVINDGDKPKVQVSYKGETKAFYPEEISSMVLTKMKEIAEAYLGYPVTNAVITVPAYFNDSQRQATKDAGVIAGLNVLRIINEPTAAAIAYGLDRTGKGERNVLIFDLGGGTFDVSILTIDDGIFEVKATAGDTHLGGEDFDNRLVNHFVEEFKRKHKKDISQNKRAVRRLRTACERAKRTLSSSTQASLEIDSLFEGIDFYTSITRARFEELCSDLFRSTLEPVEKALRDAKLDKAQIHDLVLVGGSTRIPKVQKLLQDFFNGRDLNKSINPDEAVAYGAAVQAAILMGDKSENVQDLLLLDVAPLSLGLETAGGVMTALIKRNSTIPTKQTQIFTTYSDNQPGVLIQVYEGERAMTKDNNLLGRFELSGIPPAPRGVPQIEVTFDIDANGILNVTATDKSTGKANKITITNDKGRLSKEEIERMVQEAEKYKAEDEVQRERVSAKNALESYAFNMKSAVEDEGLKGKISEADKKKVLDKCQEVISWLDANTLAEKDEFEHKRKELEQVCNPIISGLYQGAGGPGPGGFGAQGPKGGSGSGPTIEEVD

The compound `C=CC(=O)Nc1cc(N)nc(Sc2c(OC)nc(N3CCN(C)CC3)nc2OC)n1` [YK5] gave an IC50 of around 7 µM.

The values are drawn from paper PMC3985611 (Chemistry & biology, 2013).
